In patent US20220362399A1, “COMPOSITIONS AND ARTICLES COMPRISING (NANO)DIAMOND PARTICLES” (Debina Diagnostics, Inc., priority 2019, published 2022):

What was measured:
[1] = tested on: CHOP and BiP; test: ER-stress biomarkers (Western blot), HepG-2; assay type: cell-based, human; conditions: tunicamycin 25 μg/mL
Description: (§1) HepG-2 cells and HUVEC were treated (or not) with 0.1 mg/mL FDP-NV-BSA as described above. Treatment with vincristine (200 μg/mL) was used as a positive control for apoptosis, and with tunicamycin (25 μg/mL) as a positive control for ER-stress. A rabbit polyclonal antibody against caspase 3 (Cell Sign. Techn), which recognizes both the cleaved and the non-cleaved protein, was used for apoptosis detection. Rabbit mAb (clone C50B12) against BiP and mouse mAb (clone L63F7) against Chop (both from Cell Sign. Techn) were used for the detection of ER-stress. Equal loading of proteins was verified by membrane stripping and re-probing with an anti-actin mouse monoclonal antibody (Sigma Inc.).

[2] = tested on: CHOP and BiP; test: ER-stress biomarkers (Western blot), HUVEC; assay type: cell-based, human; conditions: tunicamycin 25 μg/mL
Description: as §1

[3] = tested on: HepG-2 cells; test: MTT assay (redox state), HepG-2; assay type: cell-based, human; conditions: vincristine 50 μg/mL, 24 hours
Description: (§2) The MTT assay was performed as a colorimetric assay using the Cell Proliferation Assay Kit (ThermoFisher Sci), composed of component A (3-(4,5-dimethylthiazol-2-yl)-2,5-diphenyltetrazolium bromide (MTT)) and component B (SDS (sodium dodecyl sulfate)) according to manufacturer's protocol. Briefly, HepG-2 cells and HUVEC were seeded in 96-well plates at a density of 1×10^4 cells per well in media described above for each cell type. Cells were treated or not with FDP-NV-BSA or vincristine (50 μg/mL) for 24 hours. Media (100 μL) were changed to phenol red-free DMEM (Dulbecco's Modified Eagle Medium) (ThermoFisher Sci), containing MTT component A. Plates were incubated for 4 hours, and cells lysed by adding equal volumes of 10% SDS (kit component B). Plates were incubated overnight and read using an ELISA plate reader ELx800 (BioTek, Winooski, Vt., USA) at 562 nm wavelength.

[4] = tested on: HUVEC; test: Cell counting assay, HUVEC; assay type: cell-based; conditions: Homo sapiens, vincristine 50 μg/mL, 24 hours, read-out: proliferation, % of controls
Description: (§3) Cell counting was performed. The HepG-2 cell line was purchased from American Type Culture Collection (ATTC) (Manassas, Va., USA). Primary HUVEC were purchased from Lonza and used for experiments between the 5th-8th passages. Cells maintained (37° C. at 5% CO2 atmosphere) in their respective culture media as described above. HepG-2 and HUVEC were ‘seeded’ in 96-well plates (2×10^3 per well in 100 μL medium) and treated or not with FDP-NV-BSA for 24 hours. In each experiment, vincristine (50 μg/mL), a cell-cycle proliferation inhibitor, was added as a positive control. At 24 hrs, the medium was removed, the cells were fixed with 4% paraformaldehyde (PFA, ThermoFisher Sci) and the nuclei were stained using DAPI (4′,6-diamino-2-phenylindole, dihydrochloride, ThermoFisher Sci). The plates were analyzed in a fluorescence microscope (Olympus IX81, Olympus, Tokyo, Japan) by imaging 7 observation fields for each well using 100× magnification and DAPI (blue filter) for nuclei visualization, and TRITC (red filter) for FNDP-NV-BSA visualization. The number of viable cells in each field was determined by analysis of DAPI stained nuclei using ImageJ software (National Institutes of Health, Bethesda, Md., USA) with a digitally set-up cell counter.

[5] = tested on: HepG-2 cells; test: Cell counting assay, HepG-2; assay type: cell-based; conditions: Homo sapiens, HepG2; vincristine 50 μg/mL, 24 hours; read-out: proliferation, % of controls
Description: as §3

[6] = tested on: HUVEC; test: MTT assay (redox state), HUVEC; assay type: cell-based, human; conditions: vincristine 50 μg/mL, 24 hours
Description: as §2

Compound	ER-stress protein activation [1]	ER-stress protein activation [2]	redox activity, % of normal controls [3]	activity at 50 µg/mL [4]	activity at 50 µg/mL [5]	redox activity, % of normal controls [6]
tunicamycin	sensitive	sensitive	–	–	–	–
CC[C@]1(O)C[C@H]2CN(CCc3c([nH]c4ccccc34)[C@@](C(=O)OC)(c3cc4c(cc3OC)N(C=O)[C@H]3[C@@](O)(C(=O)OC)[C@H](OC(C)=O)[C@]5(CC)C=CCN6CC[C@]43[C@@H]65)C2)C1 [vincristine]	–	–	25-30%	80%	50%	25-30%
